Our source for the IC50 values is patent US20260297085A1, “1 H-PYRROLO[2,3-B]PYRIDIN-4-YL]-2-OXOPYRROLIDINE-3-CARBONITRILE DERIVATIVES AS TYROSINE KINASE 2 (TYK2) INHIBITORS FOR THE TREATMENT OF INFLAMMATORY DISEASES” (BIOGEN MA INC., priority 2023, published 2026).

As a reminder, the pIC50 is −log10 of the IC50, conventionally taken in molar units.

SMILES strings stand for the structures. pIC50: −log10 of the molar value.

Assay [1] addresses T1, human TYK2 kinase domain (JH1) (Homo sapiens, UniProt P29597).
T1 construct: recombinantly generated catalytic kinase (also known as JH1) domain of human JAK1, JAK2, JAK3 and TYK2
T1 sequence (P29597 897-1176 limits assumed): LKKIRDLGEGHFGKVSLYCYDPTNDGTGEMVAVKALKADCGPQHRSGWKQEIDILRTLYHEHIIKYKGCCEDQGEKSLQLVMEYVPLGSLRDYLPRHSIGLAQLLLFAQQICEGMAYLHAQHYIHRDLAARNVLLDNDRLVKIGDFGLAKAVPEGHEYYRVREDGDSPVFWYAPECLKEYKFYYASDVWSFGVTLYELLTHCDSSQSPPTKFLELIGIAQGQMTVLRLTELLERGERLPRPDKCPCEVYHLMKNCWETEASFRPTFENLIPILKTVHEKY
Put plainly: JH1 biochemical assay for TYK2 (ADP-Glo kinase assay, recombinant JH1 catalytic domain, JAK3-974 peptide, 10 μM ATP). Summed up: (§1)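 Reactions ran 100 min with 50 μM substrate peptide (JAK3-342 for JAK1 at 4 nM enzyme; JAK3-974 for JAK2 0.2 nM, JAK3 0.3 nM, TYK2 2 nM), and ADP formed was read by ADP-Glo luminescence. Eleven-point 3-fold series from 10 or 1 μM; IC50 fitted by 4-parameter logistic model.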
On the technique in general: ADP-Glo first removes unused ATP, then detects ADP through luciferase.

The target in assay [2] is T2, human JAK1 kinase domain (JH1) (Homo sapiens, UniProt P23458).
T2 construct: recombinantly generated catalytic kinase (also known as JH1) domain of human JAK1, JAK2, JAK3 and TYK2
Put plainly: JH1 biochemical assay for JAK1 (ADP-Glo kinase assay, recombinant JH1 catalytic domain, JAK3-342 peptide, 35 μM ATP). In short, it runs like this:
as §1

Assay [3] has as its target T3, human JAK2 kinase domain (JH1) (Homo sapiens, UniProt O60674).
T3 construct: recombinantly generated catalytic kinase (also known as JH1) domain of human JAK1, JAK2, JAK3 and TYK2
Put plainly: JH1 biochemical assay for JAK2 (ADP-Glo kinase assay, recombinant JH1 catalytic domain, JAK3-974 peptide, 15 μM ATP). In short, it runs like this:
as §1

Assay [4] concerns the target T4, human JAK3 kinase domain (JH1) (Homo sapiens, UniProt P52333).
T4 construct: recombinantly generated catalytic kinase (also known as JH1) domain of human JAK1, JAK2, JAK3 and TYK2
Description: JH1 biochemical assay for JAK3 (ADP-Glo kinase assay, recombinant JH1 catalytic domain, JAK3-974 peptide, 4 μM ATP). In short, it runs like this:
as §1

For assay [5], the target named is Tyk2 kinase activity on STAT4 in NK92 cells (Homo sapiens, UniProt P29597). Put plainly: pSTAT4 cell assay (MSD; NK92 cells, 30 ng/mL IL2 stimulation). The following applies: 30 ng/mL IL2, 15 minutes. Type of assay: cell-based. The procedure: The inhibitory potency of compounds of the disclosure against the Tyk2 kinase activity on STAT4 was evaluated using an MSD-platform plate-based assay format. NK92 cells natively expressing STAT4 and Tyk2 were serum-starved to reduce background phosphorylation levels, then cells were treated compounds for 1 hr with a 10-point four-fold dilution series starting at 10 μM. Cells were then stimulated with 30 ng/mL IL2 for 15 minutes. Cells were lysed and […] levels were quantitated using an MSD plate-based assay with anti-STAT4 antibodies. The data were normalized and the percent activity versus log concentration of compound were fitted with a 4-parameter logistic model to generate to generate IC50 curves.

For assay [6], the target named is JAK2 kinase activity on STAT5 in TF1 cells (Homo sapiens, UniProt O60674). Description: pSTAT5 cell assay (MSD; TF1 cells, 30 ng/mL IL-3 stimulation). The settings on record: 30 ng/mL IL-3, 15 minutes. Type of assay: cell-based. The procedure:
The inhibitory potency of compounds of the disclosure against the JAK2 kinase activity on STAT5 was evaluated using an MSD-platform plate-based assay format. TF1 cells natively expressing STAT5 and JAK2 were serum-starved to reduce background phosphorylation levels, then cells were treated with compounds of disclosure for 1 hour with a 10-point four-fold dilution series starting at 10 μM. Cells were then stimulated with 30 ng/mL IL-3 for 15 minutes. Cells were then lysed and pSTAT5 levels were quantitated using an MSD plate-based assay with anti-STAT5 antibodies. The data were normalized and the percent activity versus log concentration of compound was fitted with a 4-parameter logistic model to generate a curve and an IC50 value.

Assay [7] addresses JAK1 kinase activity on STAT3 in TF1 cells (Homo sapiens, UniProt P23458). Description: pSTAT3 cell assay (MSD; TF1 cells, 30 ng/mL IL-6 stimulation). The class given is cell-based. The settings on record: 30 ng/mL IL-6, 15 minutes. The procedure: The inhibitory potency of compounds of the disclosure against the JAK1 kinase activity on STAT3 was evaluated using an MSD-platform plate-based assay format. TF1 cells natively expressing STAT3 and JAK1 were serum-starved to reduce background phosphorylation levels, then cells were treated with compounds of the disclosure for 1 hour with a 10-point four-fold dilution series starting at 10 μM. Cells were then stimulated with 30 ng/mL interleukin 6 (IL-6) for 15 minutes. Cells were lysed and pSTAT3 levels were quantitated using an MSD plate-based assay with anti-STAT3 antibodies. The data were normalized and the percent activity versus log concentration of compound was fitted with a 4-parameter logistic model to generate IC50 curves.

T2 sequence (P23458 875-1153 limits assumed): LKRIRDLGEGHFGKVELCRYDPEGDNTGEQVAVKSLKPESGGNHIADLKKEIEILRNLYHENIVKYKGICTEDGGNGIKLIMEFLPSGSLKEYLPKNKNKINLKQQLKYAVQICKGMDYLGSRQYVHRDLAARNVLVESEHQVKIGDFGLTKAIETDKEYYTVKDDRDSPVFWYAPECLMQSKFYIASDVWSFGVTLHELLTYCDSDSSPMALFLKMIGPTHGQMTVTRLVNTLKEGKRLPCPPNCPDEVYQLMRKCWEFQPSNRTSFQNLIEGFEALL
Chain of JAK1 kinase activity on STAT3 in TF1 cells (P23458 whole entry): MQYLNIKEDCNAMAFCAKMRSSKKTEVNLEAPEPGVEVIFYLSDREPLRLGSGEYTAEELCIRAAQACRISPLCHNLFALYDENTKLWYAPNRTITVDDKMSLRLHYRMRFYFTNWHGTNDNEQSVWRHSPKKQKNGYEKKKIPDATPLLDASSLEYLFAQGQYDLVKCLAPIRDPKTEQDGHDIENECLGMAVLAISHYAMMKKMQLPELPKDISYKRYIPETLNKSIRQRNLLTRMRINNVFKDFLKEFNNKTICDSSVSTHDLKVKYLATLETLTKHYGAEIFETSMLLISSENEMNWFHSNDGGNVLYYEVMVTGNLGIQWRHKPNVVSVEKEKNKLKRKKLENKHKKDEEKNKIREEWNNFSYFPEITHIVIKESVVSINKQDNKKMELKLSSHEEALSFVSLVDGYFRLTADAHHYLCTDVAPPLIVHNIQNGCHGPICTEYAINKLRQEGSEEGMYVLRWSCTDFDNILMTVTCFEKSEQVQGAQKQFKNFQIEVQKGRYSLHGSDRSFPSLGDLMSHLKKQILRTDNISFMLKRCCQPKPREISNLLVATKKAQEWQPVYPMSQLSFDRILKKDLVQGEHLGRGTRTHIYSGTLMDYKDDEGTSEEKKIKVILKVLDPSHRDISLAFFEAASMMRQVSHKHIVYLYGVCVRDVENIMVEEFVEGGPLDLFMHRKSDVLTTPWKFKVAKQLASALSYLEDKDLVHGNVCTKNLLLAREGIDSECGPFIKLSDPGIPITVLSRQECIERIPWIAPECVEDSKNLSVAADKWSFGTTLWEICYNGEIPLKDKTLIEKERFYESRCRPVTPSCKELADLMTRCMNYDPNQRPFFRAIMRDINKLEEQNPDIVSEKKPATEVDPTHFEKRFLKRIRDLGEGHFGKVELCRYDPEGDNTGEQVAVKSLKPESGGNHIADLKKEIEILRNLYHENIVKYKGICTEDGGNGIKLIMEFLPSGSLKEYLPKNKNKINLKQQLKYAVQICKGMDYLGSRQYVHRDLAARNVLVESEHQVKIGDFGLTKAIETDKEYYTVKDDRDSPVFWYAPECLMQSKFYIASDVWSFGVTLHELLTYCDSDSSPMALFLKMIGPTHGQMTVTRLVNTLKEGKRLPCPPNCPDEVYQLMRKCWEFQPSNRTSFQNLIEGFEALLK
T4 sequence (P52333 822-1111 limits assumed): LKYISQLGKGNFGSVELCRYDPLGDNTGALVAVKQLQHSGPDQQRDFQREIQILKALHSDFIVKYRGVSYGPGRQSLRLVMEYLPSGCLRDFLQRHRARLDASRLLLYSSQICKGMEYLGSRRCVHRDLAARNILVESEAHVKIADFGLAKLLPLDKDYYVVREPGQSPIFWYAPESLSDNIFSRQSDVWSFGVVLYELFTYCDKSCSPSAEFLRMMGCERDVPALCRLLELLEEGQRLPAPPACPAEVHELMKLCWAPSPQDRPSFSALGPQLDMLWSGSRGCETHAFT
Chain of JAK2 kinase activity on STAT5 in TF1 cells (O60674 whole entry): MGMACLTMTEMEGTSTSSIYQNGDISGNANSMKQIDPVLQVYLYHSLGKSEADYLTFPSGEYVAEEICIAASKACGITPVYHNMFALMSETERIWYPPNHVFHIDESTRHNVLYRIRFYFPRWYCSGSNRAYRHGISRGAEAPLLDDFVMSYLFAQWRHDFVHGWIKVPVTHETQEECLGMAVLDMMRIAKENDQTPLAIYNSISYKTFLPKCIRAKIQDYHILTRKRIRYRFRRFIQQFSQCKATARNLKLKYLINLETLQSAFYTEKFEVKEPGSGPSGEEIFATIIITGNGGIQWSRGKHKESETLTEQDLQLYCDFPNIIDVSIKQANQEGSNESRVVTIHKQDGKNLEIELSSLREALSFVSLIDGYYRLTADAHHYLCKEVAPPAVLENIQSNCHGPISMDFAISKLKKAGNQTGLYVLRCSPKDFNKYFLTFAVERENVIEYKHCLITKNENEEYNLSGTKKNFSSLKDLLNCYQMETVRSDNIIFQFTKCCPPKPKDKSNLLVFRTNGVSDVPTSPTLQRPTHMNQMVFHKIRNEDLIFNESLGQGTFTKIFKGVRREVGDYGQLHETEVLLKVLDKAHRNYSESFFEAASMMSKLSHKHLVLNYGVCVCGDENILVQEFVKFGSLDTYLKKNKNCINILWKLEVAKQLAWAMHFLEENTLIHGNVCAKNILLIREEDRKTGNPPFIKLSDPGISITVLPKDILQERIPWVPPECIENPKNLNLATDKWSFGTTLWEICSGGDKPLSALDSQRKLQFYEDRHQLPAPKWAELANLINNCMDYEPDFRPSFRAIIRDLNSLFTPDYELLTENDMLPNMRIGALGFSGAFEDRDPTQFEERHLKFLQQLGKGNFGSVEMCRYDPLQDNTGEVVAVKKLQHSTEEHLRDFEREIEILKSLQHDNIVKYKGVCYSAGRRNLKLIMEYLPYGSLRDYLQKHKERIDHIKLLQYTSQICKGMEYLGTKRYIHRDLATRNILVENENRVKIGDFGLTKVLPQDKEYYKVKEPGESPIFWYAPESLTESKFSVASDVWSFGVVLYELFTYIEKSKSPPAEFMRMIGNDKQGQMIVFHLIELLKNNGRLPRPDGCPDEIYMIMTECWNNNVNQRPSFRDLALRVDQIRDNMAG
T3 sequence (O60674 849-1124 limits assumed): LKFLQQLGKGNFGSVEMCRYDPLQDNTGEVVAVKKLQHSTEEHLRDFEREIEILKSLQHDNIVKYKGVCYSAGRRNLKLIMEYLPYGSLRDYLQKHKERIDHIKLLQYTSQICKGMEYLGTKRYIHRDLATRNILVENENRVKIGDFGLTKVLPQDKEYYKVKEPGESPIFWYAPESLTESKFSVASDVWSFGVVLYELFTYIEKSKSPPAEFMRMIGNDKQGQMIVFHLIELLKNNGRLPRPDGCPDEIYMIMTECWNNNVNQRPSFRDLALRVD
Chain of Tyk2 kinase activity on STAT4 in NK92 cells (P29597 whole entry): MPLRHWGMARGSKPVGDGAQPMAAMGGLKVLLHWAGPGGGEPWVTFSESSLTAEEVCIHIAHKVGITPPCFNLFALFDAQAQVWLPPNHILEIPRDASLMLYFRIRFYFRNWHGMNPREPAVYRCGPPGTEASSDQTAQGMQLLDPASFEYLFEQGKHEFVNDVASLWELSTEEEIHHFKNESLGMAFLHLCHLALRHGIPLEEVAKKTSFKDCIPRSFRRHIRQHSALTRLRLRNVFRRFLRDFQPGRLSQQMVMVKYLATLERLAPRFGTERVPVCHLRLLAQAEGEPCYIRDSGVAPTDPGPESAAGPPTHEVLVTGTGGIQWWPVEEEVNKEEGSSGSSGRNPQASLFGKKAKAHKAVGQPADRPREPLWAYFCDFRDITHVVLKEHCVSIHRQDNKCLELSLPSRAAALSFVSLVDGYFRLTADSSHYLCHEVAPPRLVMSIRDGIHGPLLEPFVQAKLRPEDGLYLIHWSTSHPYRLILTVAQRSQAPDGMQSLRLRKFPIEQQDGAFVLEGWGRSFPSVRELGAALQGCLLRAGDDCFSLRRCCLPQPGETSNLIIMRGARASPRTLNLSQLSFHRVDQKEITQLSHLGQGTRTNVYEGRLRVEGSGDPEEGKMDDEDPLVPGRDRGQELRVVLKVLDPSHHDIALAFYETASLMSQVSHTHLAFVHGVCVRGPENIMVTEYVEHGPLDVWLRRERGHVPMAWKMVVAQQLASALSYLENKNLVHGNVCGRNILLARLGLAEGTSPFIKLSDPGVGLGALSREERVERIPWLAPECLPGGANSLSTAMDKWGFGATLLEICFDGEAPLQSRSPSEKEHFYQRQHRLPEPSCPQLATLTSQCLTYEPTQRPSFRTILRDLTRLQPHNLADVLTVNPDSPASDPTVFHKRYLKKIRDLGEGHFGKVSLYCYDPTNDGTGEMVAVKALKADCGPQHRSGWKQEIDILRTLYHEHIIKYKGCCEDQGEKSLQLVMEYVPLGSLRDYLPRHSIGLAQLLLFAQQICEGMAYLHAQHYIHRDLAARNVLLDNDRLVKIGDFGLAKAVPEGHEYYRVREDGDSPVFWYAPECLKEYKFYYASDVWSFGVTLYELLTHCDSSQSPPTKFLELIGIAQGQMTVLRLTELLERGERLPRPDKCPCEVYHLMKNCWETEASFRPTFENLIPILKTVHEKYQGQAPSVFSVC

In the case of `C[C@@H]1CN(c2ccnn3cc(-c4cnn([C@H]5COCC(F)(F)C5)c4)cc23)C(=O)[C@]1(C#N)C1CC1` (single isomer, unassigned) [Example 327], the pIC50 in assay [1] (TYK2 JH1, ADP-Glo) is greater than 8.30; in assay [2] (JAK1 JH1, ADP-Glo), greater than 7.00; in assay [3] (JAK2 JH1, ADP-Glo) it was greater than 7.00; in assay [4] (JAK3 JH1, ADP-Glo) it was greater than 7.00; in assay [5], 7.00 to 7.30; in assay [6] it was 6.00 to 7.00. In assay [7], this compound gave a pIC50 of 5.30 to 6.00.
Regarding `C[C@@H]1CN(c2ccnc3[nH]c(-c4cnn(C)c4)cc23)C(=O)[C@]1(C#N)C1CC1` [Example 1, (3R,4S)-3-cyclopropyl-4-methyl-1-(2-(1-methyl-1H-pyrazol-4-yl)-1H-pyrrolo[2,3-b]pyridin-4-yl)-2-oxopyrrolidine-3-carbonitrile], the pIC50 in assay [1] (JH1 kinase domain, ADP-Glo) is greater than 8.30; in assay [2] (JH1 kinase domain, ADP-Glo), greater than 7.00; in assay [3] (JH1 kinase domain, ADP-Glo) it was greater than 7.00; in assay [4] (JH1 kinase domain, ADP-Glo), greater than 7.00; in assay [5], 7.70 to 8.30; in assay [6], 6.00 to 7.00. Further, the pIC50 in assay [7] is greater than 7.00.
As for `COc1cc(-c2cc3c(N4CC[C@@](C#N)(C5CC5)C4=O)ccnc3[nH]2)ccn1` [Example 3, (S)-3-cyclopropyl-1-(2-(2-methoxypyridin-4-yl)-1H-pyrrolo[2,3-b]pyridin-4-yl)-2-oxopyrrolidine-3-carbonitrile], the pIC50 is greater than 8.30 in assay [1] (JH1 kinase domain, ADP-Glo); greater than 7.00 in assay [2] (JH1 kinase domain, ADP-Glo); greater than 7.00 in assay [3] (JH1 kinase domain, ADP-Glo); greater than 7.00 in assay [4] (JH1 kinase domain, ADP-Glo); 7.30 to 7.70 in assay [5]; 5.30 to 6.00 in assay [6]. The pIC50 in assay [7] is 6.00 to 7.00.
For `COCc1cnn(-c2cc3c(N4C[C@@H](C)[C@@](C#N)(C5CC5)C4=O)ccnn3c2)c1` [Example 337, (3R,4S)-3-cyclopropyl-1-(6-(4-(methoxymethyl)-1H-pyrazol-1-yl)pyrrolo[1,2-b]pyridazin-4-yl)-4-methyl-2-oxopyrrolidine-3-carbonitrile], the pIC50 was 7.30 to 7.70 in assay [1] (TYK2 JH1, ADP-Glo); 6.00 to 7.00 in assay [2] (JAK1 JH1, ADP-Glo); 6.00 to 7.00 in assay [3] (JAK2 JH1, ADP-Glo); 6.00 to 7.00 in assay [4] (JAK3 JH1, ADP-Glo); less than 7.00 in assay [5].
Turning to `C[C@@H]1CN(c2ccnn3cc(-n4cc(C(F)F)cn4)cc23)C(=O)[C@]1(C#N)C1CC1` [Example 338, (3R,4S)-3-cyclopropyl-1-(6-(4-(difluoromethyl)-1H-pyrazol-1-yl)pyrrolo[1,2-b]pyridazin-4-yl)-4-methyl-2-oxopyrrolidine-3-carbonitrile], the pIC50 was 7.30 to 7.70 in assay [1] (TYK2 JH1, ADP-Glo); 5.30 to 6.00 in assay [2] (JAK1 JH1, ADP-Glo); 6.00 to 7.00 in assay [3] (JAK2 JH1, ADP-Glo); 6.00 to 7.00 in assay [4] (JAK3 JH1, ADP-Glo); less than 7.00 in assay [5].
As to `C[C@@H]1CN(c2ccnn3cc(-n4cc(CC#N)cn4)cc23)C(=O)[C@]1(C#N)C1CC1` [Example 339, (3R,4S)-1-(6-(4-(cyanomethyl)-1H-pyrazol-1-yl)pyrrolo[1,2-b]pyridazin-4-yl)-3-cyclopropyl-4-methyl-2-oxopyrrolidine-3-carbonitrile], the pIC50 in assay [1] (TYK2 JH1, ADP-Glo) is 7.30 to 7.70; in assay [2] (JAK1 JH1, ADP-Glo), 6.00 to 7.00; in assay [3] (JAK2 JH1, ADP-Glo), 6.00 to 7.00; in assay [4] (JAK3 JH1, ADP-Glo) it was 6.00 to 7.00; in assay [5], less than 7.00.
As to `C[C@@H]1CN(c2nc(-c3cnn(C4COC4)c3)cc3ncsc23)C(=O)[C@]1(C#N)C1CC1` [Example 352, (3R,4S)-3-cyclopropyl-4-methyl-1-(6-(1-(oxetan-3-yl)-1H-pyrazol-4-yl)thiazolo[5,4-c]pyridin-4-yl)-2-oxopyrrolidine-3-carbonitrile], the pIC50 in assay [1] (TYK2 JH1, ADP-Glo) was greater than 8.30; in assay [2] (JAK1 JH1, ADP-Glo) it was greater than 7.00; in assay [3] (JAK2 JH1, ADP-Glo), greater than 7.00; in assay [4] (JAK3 JH1, ADP-Glo) it was greater than 7.00; in assay [5] it was 7.30 to 7.70.
